Source: article PMC10606834, “Is the Neuropeptide PEN a Ligand of GPR83?” (International Journal of Molecular Sciences, 2023)

Experiments:
[1] = tested on: GPR83 (CHO and Neuro2A cells); conditions: CHO and Neuro2A cells overexpressing human GPR83; ref [10]; cited from earlier work
From the text: (§1) While the earlier study employed CHO cells from Cricetulus griseus and Neuro2A cells from Mus musculus overexpressing human GPR83 [10], this study used human HEK293 and U2OS c ...

HEK293 cells = conditions: some batches of HEK293 cells; ref [10]; cited from earlier work
From the text: as §1

[2] = tested on: GPR83 and GPR83del (HEK293 and U2OS clones; wild-type cells as comparison); assay: Ligand-dependent cAMP formation; type: cell-based, human
Description: Production of cyclic adenosine monophosphate (cAMP) is a hallmark of GPCRs signaling via the Gs-induced pathway. To investigate the potential of PEN to stimulate cAMP production mediated by GPR83, levels of the second messenger were determined after incubation with PEN of various GPR83-overexpressing clones as well as wild-type HEK293 and U2OS cells.
Figure 3 Analysis of ligand-dependent, GPR83-mediated cAMP production. (A) Wild-type HEK293 and U2OS cells as well as various clones with confirmed overexpression of either GPR83 or the deletion variant GPR83del (both ± HA tag) were incubated with either buffer, 1 µM PEN, or 50 µM forskolin. (B) Selected GPR83-overexpressing HEK293 clones were assayed for cAMP production using different concentrations of PEN. (C) Selected GPR83-overexpressing U2OS clones were assayed for cAMP production using different concentrations of PEN.
To measure intracellular cAMP production, the LANCE Ultra cAMP kit (Perkin Elmer) was used according to the manufacturer’s instructions. The day before the experiment, cells were seeded onto a 96-well plate with approximately 80% confluence. After 16–24 h, the medium was removed, and 100 μL/well of serum-free medium was added, followed by a 3 h incubation. Thereafter, medium was removed, and 40 μL of ligand dissolved in cAMP stimulation buffer was pipetted onto cells, then incubated for 10 min. The ligands used were pipetted in duplicate. For concentration–response curves, serial dilutions were carried out from the stock solutions of 1 mM to create a concentration range from 1 µM to 30 pM. As controls, 4 wells were treated with buffer only (negative control) and 4 wells with 50 μM forskolin (positive control). After a 10 min incubation, 10 μL of a 0.5% Triton-X 100 solution in PBS was added to each well. To lyse cells, the plate was shaken on a Vibramax 100 Shaker (Heidolph, Kelheim, Germany) (750 rpm) at room temperature for 10 min. A 10 μL volume of the cell lysates were transferred into a white 384 well plate (ProxiPlate, PerkinElmer). A 5 μL volume of the Europium-cAMP tracer (1 to 50 dilution of Eu-tracer stock in cAMP detection buffer) was added to each well. Next, 5 μL of the ULight-anti-cAMP solution (1 to 150 dilution of ULight-tracer stock in cAMP detection buffer) was added to each well. After a 1 h incubation period at room temperature in the dark, the TR-FRET signal was measured using an EnVision 2103 Multilabel Reader (Perkin Elmer).

[3] = tested on: GPR83 and GPR83del with Gα16 (HEK293); assay: Intracellular calcium mobilization, Gα16-transfected HEK293 cells; type: cell-based, human; conditions: 10 µM PEN, 100 µM carbachol, 100 µM ATP, Fluo4-AM fluorescence, duplicate, repeated at least two times
Description: As activation of many GPCRs is coupled to calcium mobilization from intracellular stores, GPR83 was probed for ligand-dependent calcium release. Wild-type HEK293 cells and HEK293 clones overexpressing either full-length GPR83 or the N-terminal deletion variant GPR83del were exposed to buffer or one of two independent synthesis batches (PEN #1 and PEN #2) of the neuropeptide PEN, while calcium indicator fluorescence was recorded. […] Calcium release was also tested in a second cell line, osteosarcoma U2OS cells, using various stably expressing clones. […] Therefore, HEK293 cells transfected with Gα16 were employed to investigate a potential GPR83-dependent calcium mobilization with PEN. […] A number of GPCRs show ligand-independent basal calcium activity. However, in an experiment comparing basal calcium levels in wild-type HEK293 cells and in HEK293 clones overexpressing four different variants of GPR83, they were not found to be different (Figure 2D).
Figure 2 Investigation of ligand-dependent and ligand-independent intracellular calcium mobilization. (A) Wild-type HEK293 cells and HEK293 cell clones overexpressing either GPR83 or the deletion variant GPR83del were incubated with either buffer or the specified ligand (10 µM PEN or co mix = 100 µM carbachol, 100 µM ATP, 40 µM dimaprit, or 50 µM ionomycin). (B) Calcium indicator fluorescence intensity traces over 60 s of various U2OS cell clones overexpressing untagged or HA-tagged GPR83 or the deletion variant GPR83del before and after the addition of buffer or ligand (co mix as in (A) or 50 µM ionomycin or 10 µM PEN). […]
Cells were seeded at 50,000 cells/well in a poly-D-lysine coated 96-well black well/clear bottom plate (BD Falcon, Franklin Lakes, NJ, USA) and cultured overnight. […] Fluorescence was recorded with the fluorescence imaging plate reader CellLux (Perkin Elmer, Waltham, MA, USA) simultaneously in all wells at an excitation wavelength of 488 nm and emission wavelength of 510 nm in 1.5 s intervals over a period of 4 min. Fluorescence data were generated in duplicate, and experiments were repeated at least two times.

AADHDVGSELPPEGVLGALLRV [PEN, batch #1 synthesized, batch #2 purchased from Phoenix Pharmaceuticals]
GPR83-mediated cAMP signaling [1]: Modification of GPR83-mediated cAMP signaling by PEN has been previously reported | response of HEK293 cells (HEK293 cells): had not responded to PEN | cAMP levels ([2]; 1 µM PEN or 50 µM forskolin, GPR83-overexpressing clones and wild-type HEK293 and U2OS cells, 10 min incubation, LANCE Ultra cAMP kit, TR-FRET competition, duplicate): did not change it | cAMP formation, concentration-response ([2]; titration 50 pM to 1 µM, selected GPR83-expressing HEK293 and U2OS clones, LANCE Ultra cAMP kit, TR-FRET, 10 min incubation, duplicate): did not indicate PEN-dependent cAMP formation | increased (via Gs) or decreased (via Gi) production of cAMP ([2]; up to 1 µM PEN, multiple clones of GPR83-overexpressing HEK293 and U2OS cells): did not reveal any evidence for an increased (via Gs) or decreased (via Gi) production of cAMP | calcium signal [3]: PEN did not
